Source: PMC10974084, “Combination of Betulinic Acid Fragments and Carbonic Anhydrase Inhibitors—A New Drug Targeting Approach” (Pharmaceutics, 2024)

Legend:
A375 melanoma cells = assay: SRB cytotoxicity assay, A375; type: cell-based; settings: Homo sapiens, A-375; SRB assay, 96 h incubation, mean ± SD; read-out: IC50 A375
Method: (§1) All of the compounds were dissolved in dimethyl sulfoxide (DMSO) to achieve a 20 mM stock solution. Cells were seeded in cell culture flasks 24 h before treatment. The treatment was performed for 24 h.
(§2) The cytotoxicity of the drugs was determined in 2D tumor models using sulforhodamine B (SRB) assays. Treatment started 24 h after seeding the tumor cells in 96-well plates as previously described.

[1] = test system: MCF-7 breast cancer cells; assay: SRB cytotoxicity assay, MCF-7; type: cell-based; settings: Homo sapiens, MCF7; SRB assay, 96 h incubation, mean ± SD; read-out: IC50 MCF-7
Method: as §1, §2

[2] = test system: A2780 ovarian cancer cells; assay: SRB cytotoxicity assay, A2780; type: cell-based; settings: Homo sapiens, A2780; SRB assay, 96 h incubation, mean ± SD; read-out: IC50 A2780
Method: as §1, §2

[3] = molecular target: recombinant human carbonic anhydrase IX (Homo sapiens, UniProt Q16790); assay: hCA IX esterase assay with p-nitrophenyl acetate; settings: p-nitrophenyl acetate substrate, competitive inhibition, pH 7.5, 20 °C
Method: In this measurement, the enzymatically catalyzed hydrolysis of p-nitrophenyl acetate to p-nitrophenol was investigated. […] This was followed by measurement of the v-S-characteristics with inhibitor. […] For each run, 2 experimental series (biological replicate) were prepared simultaneously and measured for 10 min at a measurement interval of 8 s, also as a two-fold determination (technical replicate). […] The resulting reaction velocities, calculated from a calibration curve with p-nitrophenole under the same conditions, were plotted against the substrate concentration. The kinetic evaluation for competitive inhibition was then performed with the program GraphPad Prism.

hypoxia-induced hCA IX = hypoxia-induced hCA IX (Homo sapiens, UniProt Q16790); assay: Cell-based hCA IX inhibition, Wilbur-Anderson method, hypoxic Hs578T cells; settings: 20 µM, 3 h, vs untreated hypoxic cells
Method: In a cell-based system, the changes of extracellular pH due to activity of hypoxia-induced hCA IX were determined. Hydration of CO2 to hydrogen carbonate and a proton catalyzed by extracellular hCA IX are the basis for detecting changes in pH depending on activity of hCA IX. Breast cancer cells (Hs578T) were cultured under hypoxic conditions for induction of hCA IX expression and afterwards treated with 20 µM of each substance for 3 h. Normoxic and hypoxic cells without treatment were used as reference. Cells were washed, scraped down, and resuspended in ice-cold isotonic buffer.

Hs578T spheroids = test system: Hs578T spheroids; set-up: method as in PMID 36780832; settings: Hs578T versus MDA-MB-231 spheroids; cited from earlier work

SMILES | IC50 (A375 melanoma cells) [µM] | IC50 [1] [µM] | IC50 [2] [µM] | Ki Values of hCA IX [3] | inhibition of hypoxia-induced hCA IX activity (relative WAU) (hypoxia-induced hCA IX) | resistance of Hs578T spheroids (Hs578T spheroids) [fold]
C=C(C)[C@@H]1CC[C@]2(C(=O)O)CC[C@]3(C)[C@H](CC[C@@H]4[C@@]5(C)CC[C@H](O)C(C)(C)[C@@H]5CC[C@]43C)[C@@H]12 [BA, betulinic acid] | 13.1 ± 0.9 | 13 ± 1 | 12.5 ± 1.8 | n.i. | no potential to inhibit hCA IX activity | –
COc1cccc2c1C(=O)c1c(O)c3c(c(O)c1C2=O)C[C@@](O)(C(=O)CO)C[C@@H]3O[C@H]1C[C@H](N)[C@H](O)[C@H](C)O1 [doxorubicin] | – | – | – | – | – | 60
CC(=O)O[C@H]1C(=O)[C@@]2(C)[C@H]([C@H](OC(=O)c3ccccc3)[C@]3(O)C[C@H](OC(=O)[C@H](O)[C@@H](NC(=O)c4ccccc4)c4ccccc4)C(C)=C1C3(C)C)[C@]1(OC(C)=O)CO[C@@H]1C[C@@H]2O [paclitaxel] | – | – | – | – | – | 20
